“Also recorded” adds a separate entry of the source. Read-outs that look alike come from different tables or passages of the source.
What was measured:
[1] = test system: bortezomib-treated Wistar rats; experiment: Bortezomib study, therapeutic paradigm; conditions: for Allodynia / Body Weight / DRG/nerve pathology / IENFD / NCS: Bortezomib Therapeutic setting, 0.2 mg/kg (i.v.) 3 times/week for 8 weeks
[2] = mouse, in vivo
Method: Sixty female Balb/C mice weighing 20-25 g at start of experiment were used and divided into 4 groups of 15 mice each. […] Body weights were measured daily, immediately prior to the initiation of dosing.

healthy male subjects = type: in vivo, human; conditions: for maximal decrease of mean heart rate (Holter-ECG): 1 to 3 hours after administration
Method: The study was performed as a single-center, randomized, double-blind, placebo-controlled, Phase 1 study with healthy male subjects receiving single ascending oral doses of Compound A. A dose-escalation design was considered to be appropriate to investigate the safety and tolerability of this new compound in the first single dose study in humans. Within each cohort six subjects were to receive a single oral dose of Compound A and two subjects were to receive placebo on Day 1.
Each subject received a single oral dose of either Compound A or placebo in a randomized fashion. Study drug administrations were performed in the morning of Day 1. The proper administration of the study medication was supervised by the Investigator or delegate. This included checking the oral and buccal cavity. The study medication or placebo was supplied as powder-containing gelatin capsules; they were administered orally together with 240 mL water. Subjects were dosed in a fasted state (no food was taken for at least 8 hours prior to dosing). Access to food was restricted until 4 hours after dosing.
12-lead ECGs were recorded on Day −1 and from pre-dose on Day 1 to 72 hours after drug administration. In addition, a Holter-ECG was recorded from about at least 12 hours prior to the planned dosing until 24 hours post-dose. Triplicate extracts (1 min interval) were taken at the same time-points when paper ECGs were taken. Vital signs (blood pressure, pulse rate, body temperature [auricular measurement]) were measured on Day −1 and then from pre-dose on Day 1 to 72 hours post-dose. 12-lead ECGs were recorded as scheduled in the study flow chart using the ECG system (Cardiosoft, Marquette Hellige). Triplicate ECGs were recorded at 36, 48 and 72 hours post-dose. The ECGs were recorded in supine position after at least 5 minutes rest or after at least 15 minutes rest at time points when ECG extracts from the Holter-ECG were done (to allow for a sufficient time period). ECGs were plotted with a paper speed of 50 mm/s and 10 mm/mV amplitude, with 10 seconds recording duration for all leads and at least 3 complexes, but preferably 5 complexes in each lead. The following ECG parameters were evaluated: heart rate, PR interval, QRS interval, QT interval, QTcB (using Bazett's correction formula) and QTcF (using Fridericia's correction formula).

proteasome activity = experiment: Proteasome inhibition study in bortezomib-treated rats; type: in vivo, Wistar rats; conditions: co-administration at different doses, preventive or therapeutic settings
Method: At baseline and after 8 weeks of treatment, caudal and digital nerve conduction and potential amplitude studies, behavioral tests (Dynamic) and blood collection to study proteasome inhibition were performed. After 8 weeks of treatment, tissue samples (sciatic and caudal nerves, DRG and foot pads) were collected and analyzed to study morphological parameters and intraepidermal nerve fibre density (IENFD).
At baseline and after 8 weeks of treatment, caudal and digital nerve conduction and potential amplitude studies and blood collection to study proteasome inhibition were performed. […] After 8 weeks of treatment, sciatic nerves, caudal nerves, DRG and foot pads were collected from all animals and analyzed to study morphological parameters and IENFDs.

[3] = test system: bortezomib-treated Wistar rats; experiment: Bortezomib study, prevention paradigm; type: in vivo; conditions: for Allodynia / Body Weight / DRG/nerve pathology / IENFD / NCS: Bortezomib Preventive setting, 0.2 mg/kg (i.v.) 3 times/week for 8 weeks
[4] = Method: The stability of Compound A was followed by HPLC analysis. […] Additionally a stability study was performed over 3 years on industrial batch of dried material.
[5] = therapeutic setting, all doses, monohydrochloride salt
[6] = crude wet material, batch #01, 2-8° C., t = 0
[7] = crude wet material, batch #01, 2-8° C., t = 8 days
[8] = crude wet material, batch #01, 2-8° C., t = 30 days
[9] = crude wet material, batch #02, rt under air, t = 0
[10] = crude wet material, batch #02, rt under air, t = 24 days
[11] = during drying at 60° C., t = 74 hours

Substance: 3-(1-(2,3-dichloro-4-methoxyphenyl) ethyl)-1-methyl-1-(1,3,3-trimethylpiperidin-4-yl)urea monohydrochloride salt [Compound A]
- Allodynia ([1]; Compound A dose 3): +
- Body Weight ([1]; Compound A dose 3): +/−
- DRG/nerve pathology ([1]; Compound A dose 3): −
- IENFD ([1]; Compound A dose 3): −
- NCS ([1]; Compound A dose 3): +/−
- Allodynia ([1]; Compound A dose 10): +
- Body Weight ([1]; Compound A dose 10): +/−
- DRG/nerve pathology ([1]; Compound A dose 10): +/−
- IENFD ([1]; Compound A dose 10): −
- NCS ([1]; Compound A dose 10): +/−
- Allodynia ([1]; Compound A dose 30): +
- Body Weight ([1]; Compound A dose 30): +/−
- DRG/nerve pathology ([1]; Compound A dose 30): +/−
- IENFD ([1]; Compound A dose 30): −
- NCS ([1]; Compound A dose 30): −
- protective effects on DRG/nerve pathology ([1]; therapeutic setting): not present
- allodynia vs CTRL (mechanical threshold) ([1]; therapeutic setting, after 5 weeks and at the end of treatment, all doses): protected
- caudal NCV and potential amplitude vs CTRL [1, 5]: statistically significant reduction
- digital NCV vs CTRL [1, 5]: statistically significant reduction only the animals treated with bortezomib alone; also recorded: Only the animals treated with bortezomib alone showed a significant reduction
- body weight vs. CTRL and bortezomib groups ([1]; therapeutic setting, end of treatment, Compound A 30): significant increase in body weight
- body weight vs. CTRL and bortezomib groups ([1]; therapeutic setting, following 10 days co-treatment): significant increase of body weight
- digital potential amplitude vs CTRL ([1]; therapeutic setting, highest dose of Compound A): reduction in potential amplitude
- tissue penetration index (ratio of tissue/plasma) in DRG [2]: 18-19 fold
- tissue penetration index (ratio of tissue/plasma) in SN [2]: 9-12 fold
- Tissue penetration index (DRG/plasma ratio) ([2]; 10 mg/kg): 17.6
- Tissue penetration index (SN/plasma ratio) ([2]; 10 mg/kg): 8.9
- Tissue penetration index (DRG/plasma ratio) ([2]; 30 mg/kg): 18.9
- Tissue penetration index (SN/plasma ratio) ([2]; 30 mg/kg): 12.0
- AUC0-∞ in sciatic nerve and DRG relative to plasma ([2]; po, 30 mg/kg): 3-4 fold
- terminal half-life in plasma ([2]; po, 30 mg/kg): approximately 1 h
- terminal half-life in sciatic nerve ([2]; po, 30 mg/kg): approximately 4.7 h
- time after dosing at which pre-dose heart rate levels were reached again (healthy male subjects; 0.1 to 10 mg single oral dose): 6 h
- pulse rate (healthy male subjects; groups treated with Compound A): decrease
- maximal decrease of mean heart rate (Holter-ECG) (healthy male subjects; single oral dose 0.1 mg): 5.1 bpm
- maximal decrease of mean heart rate (Holter-ECG) (healthy male subjects; single oral dose 0.3 mg): 6.8 bpm
- maximal decrease of mean heart rate (Holter-ECG) (healthy male subjects; single oral dose 1.0 mg): 15.9 bpm
- maximal decrease of mean heart rate (Holter-ECG) (healthy male subjects; single oral dose 10 mg): 18.3 bpm
- bortezomib-induced proteasome inhibition (proteasome activity): did not impair
- Allodynia ([3]; Compound A dose 3): +
- Body Weight ([3]; Compound A dose 3): +/−
- DRG/nerve pathology ([3]; Compound A dose 3): −
- IENFD ([3]; Compound A dose 3): +
- NCS ([3]; Compound A dose 3): −
- Allodynia ([3]; Compound A dose 10): +
- Body Weight ([3]; Compound A dose 10): +/−
- DRG/nerve pathology ([3]; Compound A dose 10): +/−
- IENFD ([3]; Compound A dose 10): +
- NCS ([3]; Compound A dose 10): −
- Allodynia ([3]; Compound A dose 30): +
- Body Weight ([3]; Compound A dose 30): +/−
- DRG/nerve pathology ([3]; Compound A dose 30): +/−
- IENFD ([3]; Compound A dose 30): +
- NCS ([3]; Compound A dose 30): +/−
- mild axonal changes in the sciatic nerve ([3]; different doses): did not alter these changes
- DRG sensory neuron degeneration and satellite cell vacuolization ([3]; preventive setting): incomplete protection
- digital NCV vs CTRL ([3]; preventive setting, Compound A 30 mg/kg): no alteration
- digital NCV vs CTRL ([3]; preventive setting, Compound A 3 and 10 mg/kg): statistically significant reduction
- bortezomib-induced reduction in IENFD ([3]; preventive setting, all doses): significantly prevented
- allodynia vs CTRL (mechanical threshold) ([3]; preventive setting, all doses, end of treatment): did not show allodynia
- caudal NCV and caudal potential amplitude vs CTRL ([3]; preventive setting, all doses, monohydrochloride salt): statistically significant reduction
- digital potential amplitude vs CTRL ([3]; preventive setting, all groups, end of treatment): No changes
- caudal nerve pathological changes ([3]; preventive setting, different doses): mild, not dose-dependent reduction in these pathological changes
- body weight difference vs. CTRL and bortezomib groups ([3]; preventive study, at the end of treatment): not significant
- body weight vs. CTRL and bortezomib groups ([3]; preventive study, different doses, first few weeks until day 21): significant increase in body weight
- Compound A, HPLC results [4, 6]: 99.60%
- Impurity RRT 0.97, HPLC results [4, 6]: 0.40%
- Compound A, HPLC results [4, 7]: 99.70%
- Impurity RRT 0.97, HPLC results [4, 7]: 0.29%
- Compound A, HPLC results [4, 8]: 99.75%
- Impurity RRT 0.97, HPLC results [4, 8]: 0.25%
- Compound A, HPLC results [4, 9]: 99.74%
- Impurity RRT 0.97, HPLC results [4, 9]: 0.24%
- Compound A, HPLC results [4, 10]: 99.73%
- Impurity RRT 0.97, HPLC results [4, 10]: 0.27%
- Compound A, HPLC results ([4]; during drying at 60° C., t = 0): 99.83%
- Impurity RRT 0.97, HPLC results ([4]; during drying at 60° C., t = 0): 0.17%
- Compound A, HPLC results [4, 11]: 99.78%
- Impurity RRT 0.97, HPLC results [4, 11]: 0.17%
